Data reported in EP2116263A1, “Reversibly light-switchable drug-conjugates” (priority 2008, dated 2009).
Entries after “also recorded” stand apart in the source; their conditions may differ. Like-named read-outs stand apart in the source and are kept apart here.

Key:
[1] = target: calcineurin (CaN) phosphatase activity (Homo sapiens, UniProt P62937+P63098+Q08209); assay: Calcineurin (CaN) phosphatase activity inhibition assay in the presence of Cyp18; conditions: for change of CaN inhibition between cis and trans forms / upon light irradiation: in the presence of Cyp18, absence of SA
Method: The reaction mixture containing 700 µM peptide, 0.2 µM cAMP, 100 µCi[γ-^33P]ATP and 10 kU PKA in a final volume of 100 µl in the buffer (containing 20 mM MES, pH 6.5, 0.4 mM EDTA, 0.2 mM EGTA, 50 µM CaCl2 and 2 mM MgCl2) was incubated for one hour at 30 °C. The phosphorylated peptides were separated from unincorporated labeled ATP by 1 ml RP-C2 clean up extraction column (Amchro, Sulzbach, Germany). The eluted peptide (with 70% acetonitrile) was lyophilized and reconstituted with de-ionized water.
The scintillation proximity concept has been applied for measuring calcineurin activity using ScintiPlate wells coated with streptavidin. […] Biotinylated [γ-^33P] RII peptide was added to a final concentration of 100 nM and the total assay volume is 100 µl. After incubation at 30 °C for 30 min, 90 µl of the reaction mixture was transferred to the ScintiPlate well coated with streptavidin. The streptavidin immobilizes the biotinylated RII peptide on the wells. After 20 min at 22 °C the well was washed once with water and the RII associated [γ-^33P] was measured in the top-counter MicroBeta (Wallac, Turku, Finland).

[2] = target: Recombinant hCyp18 PPIase activity (Homo sapiens, UniProt P62937); assay: Cyp18 PPIase activity, protease coupled assay; assay type: biochemical
Chain of Recombinant hCyp18 PPIase activity (P62937 whole entry): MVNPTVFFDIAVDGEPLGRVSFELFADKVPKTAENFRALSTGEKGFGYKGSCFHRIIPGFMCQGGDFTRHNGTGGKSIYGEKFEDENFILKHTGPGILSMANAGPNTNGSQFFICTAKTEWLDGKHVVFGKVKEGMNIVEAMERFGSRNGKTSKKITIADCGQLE
Method: The PPIase activity was measured at 7 °C with a protease coupled assay on a Hewlett-Packard 8452a diode array spectrophotometer (Fischer et al., 1984). To 1220 µl Hepes buffer pH 7.8, Cyp18 and inhibitor of desired concentration are added. After 10 min of incubation, protease and substrate were added. The final substrate concentration is 40 µM in 1280 µl. The cis/trans isomerization was monitor at 390 nm with 510 nm as a reference. The rate is calculated according to first order reaction. Recombinant hCyp18 PPIase activity was measured with the peptide Suc-Ala-Phe-Pro-Phe-NH-Np as substrate. The substrate was dissolved in DMSO (10 mg/ml). α-Chymotrypsin was used as auxiliary protease. The residual enzymatic activity was plotted versus the inhibitor concentration and used for calculating the inhibitor constants Ki as described before (Schutkowski et al., 1995).
PPIase activities are measured with a protease coupled assay, using Suc-Ala-Phe-Pro-Phe-NH-Np as substrate and chymotrypsin as auxiliary protease, in 35 mM HEPES buffer pH 7.8, at 7 °C. Cyp18 concentration is 2.5 nM. […] Irradiations have been performed with light of 740 nm for 45 min. […]

CaN and Cyp18 = assay: Cross-linking (BS3) of CaN and Cyp18 in treated Jurkat cells, anti-CaN blot; assay type: cell-based, human
Method: Cells were lysed and the clear supernatants were incubated with calmodulin sepharose. Cross-linking reagent BS^3 was added to the EDTA eluates. After TCA precipitation, the samples were separated by SDS-PAGE and probed with anti-CaN antibody and detected by enhanced chemiluminescent reaction.

[3] = target: Cyp18/CsA-AB-CsA/Cyp18 tertiary complex (Homo sapiens, UniProt P62937); assay: Coprecipitation of His4-Cyp18 with GST-Cyp18 matrix on glutathione-Sepharose; assay type: binding
Chain of Cyp18/CsA-AB-CsA/Cyp18 tertiary complex (P62937 whole entry, one chain of several): as the sequence (P62937 whole entry) above
Source text: The proteins were eluted by boiling with sample buffer and separated by SDS-PAGE, transferred onto nitrocellulose membrane and probed with anti-His and anti-GST antibodies.

C/C=C/C[C@@H](C)[C@@H](O)[C@H]1C(=O)N[C@@H](CC)C(=O)N(C)CC(=O)N(C)[C@@H](CC(C)C)C(=O)N[C@@H](C(C)C)C(=O)N(C)[C@@H](CC(C)C)C(=O)N[C@@H](C)C(=O)N[C@H](COCC(=O)Nc2ccc(N=Nc3ccc(NC(=O)CCCC[C@@H]4SC[C@@H]5NC(=O)N[C@@H]54)cc3)cc2)C(=O)N(C)[C@@H](CC(C)C)C(=O)N(C)[C@@H](CC(C)C)C(=O)N(C)[C@@H](C(C)C)C(=O)N1C [CsA-AB-Biotin]
trans/cis difference of activity in CaN inhibition assay ([1]; absence of SA): 1.4 | change of CaN inhibition between cis and trans forms / upon light irradiation [1]: only a minor change | IC50, CaN inhibition ([1]; non-irradiated (trans), in the presence of SA): too high to be determined precisely | inhibition at 10 µM ([1]; read-out: CaN inhibition): 30% | IC50 ([2]; IC50, inhibition of Cyp18 PPIase activity, cis isomer bound to the borrowed protein SA (4 equivalents)): 4.45 ± 0.55 nM | IC50 ([2]; IC50, inhibition of Cyp18 PPIase activity, irradiated, cis, absence of SA, Cyp18 2.5 nM, 7 °C): 2.21 ± 0.02 nM | IC50 ([2]; IC50, inhibition of Cyp18 PPIase activity, non-irradiated, trans, absence of SA, Cyp18 2.5 nM, 7 °C): 2.96 ± 0.68 nM | IC50 ([2]; IC50, inhibition of Cyp18 PPIase activity, trans isomer bound to the borrowed protein SA (4 equivalents)): 9.37 ± 0.75 nM | cross-linking between CaN and Cyp18 (CaN and Cyp18; absence of SA, conjugate in photoswitched cis form): intensive cross-linking | cross-linked CaN-Cyp18-SA (CaN and Cyp18; cells transfected with SA, cis): detected only in sample treated with cis-CsA-AB-Biotin; also recorded: can only be detected in samples treated with cis-CsA-AB-Biotin | cross-linking between CaN and Cyp18 (CaN and Cyp18; cells transfected with SA, non-irradiated trans): weakest cross-linking effect | interaction of the Cyp18-trans-CsA-AB-Biotin-SA complex with CaN (CaN and Cyp18; cells transfected with SA, trans): does not interact with CaN

C/C=C/C[C@@H](C)[C@@H](O)[C@H]1C(=O)N[C@@H](CC)C(=O)N(C)CC(=O)N(C)[C@@H](CC(C)C)C(=O)N[C@@H](C(C)C)C(=O)N(C)[C@@H](CC(C)C)C(=O)N[C@@H](C)C(=O)N[C@H](COCC(=O)Nc2ccc(N=Nc3ccc(NC(=O)COC[C@H]4NC(=O)[C@H](C)NC(=O)[C@H](CC(C)C)N(C)C(=O)[C@H](C(C)C)NC(=O)[C@H](CC(C)C)N(C)C(=O)CN(C)C(=O)[C@H](CC)NC(=O)[C@H]([C@H](O)[C@H](C)C/C=C/C)N(C)C(=O)[C@H](C(C)C)N(C)C(=O)[C@H](CC(C)C)N(C)C(=O)[C@H](CC(C)C)N(C)C4=O)cc3)cc2)C(=O)N(C)[C@@H](CC(C)C)C(=O)N(C)[C@@H](CC(C)C)C(=O)N(C)[C@@H](C(C)C)C(=O)N1C [CsA-AB-CsA]
change of CaN inhibition between cis and trans forms / upon light irradiation [1]: significant increase | increase of inhibitory potency towards the PPIase activity of Cyp18, cis compared to trans ([2]; irradiated cis vs non-irradiated trans): 7 fold | Cyp18 inhibitory profile after thermal cis to trans isomerization ([2]; irradiated sample kept in darkness overnight at room temperature): reversed | IC50 ([2]; irradiated, cis, absence of SA, Cyp18 2.5 nM, 7 °C, read-out: IC50, inhibition of Cyp18 PPIase activity): 30 ± 3 nM | IC50 ([2]; non-irradiated, trans, absence of SA, Cyp18 2.5 nM, 7 °C, read-out: IC50, inhibition of Cyp18 PPIase activity): 206 ± 22 nM | coprecipitation of His4-Cyp18 with GST-Cyp18 ([3]; photoswitched cis (irradiated)): coprecipitated together with GST-Cyp18 | coprecipitation of His4-Cyp18 with GST-Cyp18 ([3]; trans (non-irradiated)): only a minor amount
